From patent US10342796B2, “Acrylanilide derivative, preparation method, and applications thereof in pharmacy” (Ancureall Pharmaceutical (Shanghai) Co., Ltd., priority 2015, dated 2019)
Where two headings read alike, the source gives them in different places.

What was measured:
K562 (BCR-ABL) = assay: Growth inhibition GI50 in vitro (CCK8/MTT, 72 h); assay type: cell-based; details: Homo sapiens
Description: Human leukemia cell line K562 (expressing BCR-ABL fusion protein) (ATCC) was cultured with 1×RPMI1640 complete medium (supplement with 10% FBS).
(§1) The suspension cells were collected by centrifugation. The supernatant was discard and the cell pellet was resuspended and counted. Different cell concentrations (5˜10×10^4 cells/mL) were prepared according to the growth cycle of each cell line and then seeded on a 96-well plate (Corning), 100 μL/well. The cells were incubated over night at 37° C., 5% CO2. The compounds were added to the cells on the second day with 2 wells in parallel. The final concentration of organic solvent shall not exceed 1%. The cells were continually incubated for 72 h, and then subjected to MTT assay.
(§2) The present compounds and the reference compounds were dissolved with DMSO (Sigma), respectively. […] The storage concentration of compounds was 10 mM and kept at −20° C. They were diluted by 2 times or 10 times with serial dilution before using.
(§3) Dojindo CCK8 reagent kit was used as MTT assay. […] FC meter was used as microplate reader.
(§4) Adherent cell culture medium was discard and immediately replaced with fresh prepared medium which contains 10% CCK8 reagent (100 μL/well). For the suspension cells, CCK8 was directly added to 10% of the final concentration. The cells were continually incubated for 1˜4 h. When the color of control wells turned to dark yellow, the absorption value was measured at OD450 nm. The cell growth rate was calculated according to the following formula: cell growth rate (%)=100*(T−T0)/(C−T0), T=optical density of drug treatment cell well—optical density of blank control well; T0=optical density of cell well before drug treatment—optical density of blank control well; C=optical density of cell well of solvent control group—optical density of blank control well. […] The experiment was independently repeated 1˜3 times, and subject to biological statistical analysis.
(§5) Growth inhibition assay was conducted in the cell lines shown Table 14 with the different oncogene mutations. Each compound started at 1000 nM as an initial concentration and was diluted by 2 times with serial dilution to 0.03 nM.

Ramos (BTK) = assay: Growth inhibition GI50 in vitro (CCK8/MTT, 72 h); assay type: cell-based, human; details: for GI50: Homo sapiens, Ramos, BTK; for inhibition effects: BTK+ Ramos cells
Description: RAMOS is human B lymphocytic leukemia cell line positively expressing BTK. It was cultured with 1×RPMI1640 complete medium (supplement with 10% FBS).
as §1, §2, §3, §4, §5

[1] = system: A375 (EGFR wt, BRAF V600E); assay: Growth inhibition GI50 in vitro (CCK8/MTT, 72 h); assay type: cell-based; details: Homo sapiens, A-375
Description: EGFR wild type cell lines: human epidermal cancer cell line A431 (EGFR WT, amplification and high expression, from Shanghai Cell Bank of Chinese Academy of Sciences and ATCC), NSCLC cell lines NCI-H460 (EGFR WT, Kras G61H and PI3KCA E545K mutants, ATCC) and NCI-H1299 (EGFR WT, ATCC), melanoma cell line A375 (EGFR WT and BRAF V600E mutant, from Shanghai Cell Bank of Chinese Academy of Sciences, ATCC), human lung cancer cell line NCI-H292 (EGFR WT, from human lung mucoepidermoid carcinoma/lymphatic metastasis, purchased from Shanghai Cell Bank of Chinese Academy of Sciences) were cultured with 1×RPMI1640 complete medium which was supplement with 10% FBS. NSCLC cell line A549 (EGFR WT and Kras G12S mutant, from Shanghai Cell Bank of Chinese Academy of Sciences) was cultured with 1×Ham'S F12K complete medium which was supplement with 10% FBS, 1% double-antibiotics and 2 mM glutamine.
as §1, §2, §3, §4, §5

HEL (Jak2 V167F) = assay: Growth inhibition GI50 in vitro (CCK8/MTT, 72 h); assay type: cell-based; details: Homo sapiens
Description: Jak2 is a kind of non-receptor PTK (Janus Kinase 2) with great significance in cell growth, differentiation and transformation. Jak2 gene mutation often leads to bone marrow hyperplasia and transformation. Especially Jak2 V167F mutation is common for clinical patients. Human erythroleukemia cell line HEL expressing Jak2 V167F was cultured with 1×RPMI1640 complete medium (supplement with 10% FBS).
as §1, §2, §3, §4, §5

PC-9 tumor cells = assay: In vivo tumor growth inhibition, xenograft; parameters: species or system Bab/c nude mice; details: Mus musculus, po, 456 h; 25 mg/kg intragastric once daily, day 19; read-out: TGI (%) PC-9
Description: (§6) Tumor xenograft models of immunodeficient mice are an effective tool to test the antitumor activity of the compound in vivo. Generally, the effectiveness of human tumor cell xenograft is positively correlated with the clinical treatment of human tumor. Bab/c immunodeficient mouse is one of the most commonly used xenograft animals with human tumor cells. In order to test whether the present compounds can inhibit the in vivo growth of the tumor cells expressing EGFR mutantion or HER2/ErbB2 overexpression, H1975, PC-9 and NCI-N87 cell lines were used in the experiments. When H1975, PC-9 and NCI-N87 cells were in growth logarithmic phase, they were digested with pancreatin. An appropriate amount of 1×RPMI1640 culture medium (serum-free) was added to stop digestion. The cells were collected to a 50 ml centrifuge tube (Corning), and centrifuged at 1700 rm for 3 min. The supernatant was discard, then the cells were suspended with 1×RPMI1640 culture medium and count the number. […] cells/mL was prepared and then placed on ice. 5˜10×10^6 (0.2 ml) cells were inoculated subcutaneously on the right side of the back of 6˜8 week old female Bab/c nude mice (about 20 g in weight). When the tumor average volume growed to 100˜200 mm^3, the mice were randomly divide into groups (3-6 mice per group), and marked by ear pierced tags and weighted. The test compounds and the reference compound (with a purity over 99% and individual impurity not higher than 0.2%) were formulated to emulsion suspension with CM (30% polyethylene glycol 400, 0.5% Tween-80 and 2.5% propylene glycol) respectively. Intragastric administration was continued once daily at a dosage of 25 mg/kg (0.1 ml/10 g mouse). The tumor was measured 3 times per week. When the average volume of the tumor in CM control group was up to 1500 mm^3 or after administration for 30 days, the experiment was ended.
(§7) The volume of tumor (V) was calculated as V=½*a*b^2 (a represents length of tumors, b represents width of tumors). Tumor growth inhibition (TGI) was calculated as: TGI (%)=100−(VT−VT0)/(VC−VC0)*100%; where VT0 and VT are the tumor volumes of the beginning and finish days of dosed groups; and VC0 and VC are the tumor volumes of the beginning and finish days for the control group, respectively.

H1975 tumor cells = assay: In vivo tumor growth inhibition, xenograft; parameters: species or system Bab/c nude mice; details: Mus musculus, NCI-H1975, po, 456 h; 25 mg/kg intragastric once daily, day 19; read-out: TGI (%) H1975
Description: as §6, §7

[2] = system: HER2/ErbB2 amplified cell line N87; assay: In vivo tumor growth inhibition, xenograft; parameters: species or system Bab/c nude mice; details: Mus musculus, po, 456 h, 25 mg/kg intragastric once daily, day 19, read-out: TGI (%)
Description: as §6, §7

[3] = A375, EGFR wt, BRAF V600E, read-out: GI50
[4] = HEL, Jak2 V167F, read-out: GI50

| GI50 (K562 (BCR-ABL)) [nM] | GI50 (Ramos (BTK)) [nM] | GI50 [1, 3] [nM] | Structure (SMILES) | GI50 [1] [nM] | GI50 (HEL (Jak2 V167F)) [nM] | inhibition in vivo at 25 mg/kg (PC-9 tumor cells) [%] | inhibition in vivo at 25 mg/kg (H1975 tumor cells) [%] | inhibition effects (Ramos (BTK)) | GI50 (HEL (Jak2 V167F); [4]) [nM] | inhibition in vivo at 25 mg/kg [2] [%] |
| --- | --- | --- | --- | --- | --- | --- | --- | --- | --- | --- |
| > 1000 | 148 | 465 | C=CC(=O)Nc1cc(Nc2ncnc(Nc3cccc(Br)c3)n2)c(OC)cc1N1CCC(N2CCCC2)CC1 [Compound 118] |  |  |  |  | moderate inhibition effects | > 1000 |  |
| > 1000 | 937 | > 1000 | C=CC(=O)Nc1cc(Nc2nccc(Nc3ccc(OCc4ccccn4)c(Cl)c3)n2)c(OC)cc1N(C)CCN(C)C [Compound 18, N-(5-(4-(3-chloro-4-(pyridin-2-methoxyl)phenylamino)pyrimidin-2-ylamino)-2-((2-(dimethylamino)ethyl)(methyl)amino)-4-methoxyl-phenyl)-acrylamide] |  |  | 98.3 | 96.7 |  | > 1000 |  |
|  |  |  | C=CC(=O)Nc1cc(Nc2cc(-c3cn(C(C)C)c4ccc(F)cc34)ncn2)c(OC)cc1N(C)CCN(C)C [Compound 191, N-(5-(6-(5-fluoro-1-isopropyl-1H-indol-3-yl)-pyrimidin-4-ylamino)-4-methoxyl-2-((2-dimethylamino-ethyl)-methyl-amino)-phenyl)-acrylamide] |  |  | 98.8 | 99.3 |  |  | 96.6 |
| > 1000 |  | > 1000 | C=CC(=O)Nc1cc(Nc2ncc(Cl)c(Nc3ccc(OCc4ccccn4)c(Cl)c3)n2)c(OC)cc1N(C)CCN(C)C [Compound 19, N-(5-(5-chloro-4-(3-chloro-4-(pyridin-2-methoxyl)phenylamino)-pyrimidin-2-ylamino)-2-((2-(dimethylamino)ethyl)(methyl)amino)-4-methoxyl-phenyl)-acrylamide] |  |  |  |  |  | > 1000 |  |
| > 1000 | 234 | > 1000 | C=CC(=O)Nc1cc(Nc2nccc(Nc3cccc(Cl)c3)n2)c(OC)cc1N(C)CCN(C)C [Compound 2, N-(5-(4-(3-chloro-phenylamino)-pyrimidin-2-ylamino)-2-(2-(dimethylamino-ethyl)-methyl-amino)-4-methoxyl-phenyl)-acrylamide] |  |  |  |  |  | > 1000 |  |
|  |  |  | C=CC(=O)Nc1cc(Nc2cc(Nc3cc(F)c(OC)c(Cl)c3)ncn2)c(OC)cc1N(C)CCN(C)C [Compound 236, N-(5-(6-(3-chloro-5-fluoro-4-methoxyphenylamino)-pyrimidin-4-yl-amino)-2-((2-dimethylamino-ethyl)-methyl-amino)-4-methoxyl-phenyl)-acrylamide] |  |  |  |  |  |  | 97.5 |
| > 1000 | 46.8 | > 1000 | C=CC(=O)Nc1cc(Nc2cc(Nc3ccc(F)c(Cl)c3)ncn2)c(OC)cc1N1CCN(C2CCN(C)CC2)CC1 [Compound 147, N-(5-(6-(3-chloro-4-fluoro-phenylamino)-pyrimidin-4-ylamino)-4-methoxyl-2-(4-(1-methylpiperidin-4-yl)-piperazin-1-yl)-phenyl)-acrylamide] |  |  |  |  |  | > 1000 |  |
|  |  |  | C=CC(=O)Nc1cc(Nc2cc(Nc3ccc(OCC4CCOCC4)c(Cl)c3)ncn2)c(OC)cc1N(C)CCN(C)C [Compound 216, N-(5-(6-(3-chloro-4-(tetrahydropyran-4-yl-methoxyl)-phenylamino)-pyrimidin-4-ylamino)-2-((2-dimethylaminoethyl)-methyl-amino)-4-methoxyphenyl)-acrylamide] |  |  |  |  |  |  | 97.6 |
|  |  |  | C=CC(=O)Nc1cc(Nc2nccc(-n3ccc4c(OCCOC)cccc43)n2)c(OC)cc1N(C)CCN(C)C [Compound 205, N-(5-(4-(4-(2-methoxyl-ethoxyl)-1H-indol-1-yl)-pyrimidin-2-ylamino)-2-(2-(dimethylamino-ethyl)-methyl-amino)-4-methoxyl-phenyl)-acrylamide] |  |  | 96.5 | 99.5 |  |  |  |
|  |  |  | C=CC(=O)Nc1cc(Nc2cc(Nc3cc(OC)c(Cl)cc3Cl)ncn2)c(OC)cc1N(C)CCN(C)C [Compound 136, N-(5-(6-(2,4-dichloro-5-methoxyl-phenylamino)-pyrimidin-4-ylamino)-2-((2-dimethylamino-ethyl)-methyl-amino)-4-methoxyl-phenyl)-acrylamide] |  |  |  |  |  |  | 96.7 |
| > 1000 | 96.6 | 465 | C=CC(=O)Nc1cc(Nc2ncnc(Nc3cccc(F)c3)n2)c(OC)cc1N(C)CCN(C)C [Compound 114, N-(5-(4-(3-fluoro-phenylamino)-[1,3,5]triazin-2-ylamino)-2-((2-dimethylamino-ethyl)-methyl-amino)-4-methoxyl-phenyl)-acrylamide] |  |  |  |  | moderate inhibition effects | > 1000 |  |
| > 1000 | 234 | > 1000 | C=CC(=O)Nc1cc(Nc2nccc(-n3cnc4ccccc43)n2)c(OC)cc1N(C)CCN(C)C [Compound 106] |  |  |  |  |  | > 1000 |  |
| > 1000 | 58.6 | > 1000 | C=CC(=O)Nc1cc(Nc2cc(Nc3ccc(F)c(Cl)c3)ncn2)c(OC)cc1N(C)CCN(C)C [Compound 140, N-(5-(6-(3-chloro-4-fluoro-phenylamino)-pyrimidin-4-ylamino)-2-((2-dimethylamino-ethyl)-methyl-amino)-4-methoxyl-phenyl)-acrylamide] |  |  | 97.9 | 98.4 | moderate inhibition effects | > 1000 |  |

| Structure (SMILES) | GI50 (K562 (BCR-ABL)) [nM] | GI50 (Ramos (BTK)) [nM] | GI50 [1, 3] [nM] | GI50 [1] [nM] | GI50 (HEL (Jak2 V167F)) [nM] | inhibition in vivo at 25 mg/kg (PC-9 tumor cells) [%] | inhibition in vivo at 25 mg/kg (H1975 tumor cells) [%] | inhibition effects (Ramos (BTK)) | GI50 (HEL (Jak2 V167F); [4]) [nM] | inhibition in vivo at 25 mg/kg [2] [%] |
| --- | --- | --- | --- | --- | --- | --- | --- | --- | --- | --- |
| C=CC(=O)Nc1cc(Nc2nccc(-c3cn(C)c4ccccc34)n2)c(OC)cc1N(C)CCN(C)C [AZD9291, reference compound] | > 1000 | 937 |  | > 1000 | > 1000 | 97.2 | 98.4 |  |  |  |
